Laboratory results reported in patent US9073858B2, “Methods of targeted drug development” (priority 2010, dated 2015).
pIC50: −log10 of the molar value. Like-named read-outs stand apart in the source and are kept apart here.

Assays:
EGFR = target: T1, EGFR (Homo sapiens, UniProt P00533); assay: EGFR in-cell Western (ICW) screening protocol; format: cell-based; parameters: unit not given here; details: for ICW Screen: initial screen
T1 construct: endogenous in cells; host or cells: A431 cells (ATCC CRL-1555)
T1 sequence (P00533 25-1210): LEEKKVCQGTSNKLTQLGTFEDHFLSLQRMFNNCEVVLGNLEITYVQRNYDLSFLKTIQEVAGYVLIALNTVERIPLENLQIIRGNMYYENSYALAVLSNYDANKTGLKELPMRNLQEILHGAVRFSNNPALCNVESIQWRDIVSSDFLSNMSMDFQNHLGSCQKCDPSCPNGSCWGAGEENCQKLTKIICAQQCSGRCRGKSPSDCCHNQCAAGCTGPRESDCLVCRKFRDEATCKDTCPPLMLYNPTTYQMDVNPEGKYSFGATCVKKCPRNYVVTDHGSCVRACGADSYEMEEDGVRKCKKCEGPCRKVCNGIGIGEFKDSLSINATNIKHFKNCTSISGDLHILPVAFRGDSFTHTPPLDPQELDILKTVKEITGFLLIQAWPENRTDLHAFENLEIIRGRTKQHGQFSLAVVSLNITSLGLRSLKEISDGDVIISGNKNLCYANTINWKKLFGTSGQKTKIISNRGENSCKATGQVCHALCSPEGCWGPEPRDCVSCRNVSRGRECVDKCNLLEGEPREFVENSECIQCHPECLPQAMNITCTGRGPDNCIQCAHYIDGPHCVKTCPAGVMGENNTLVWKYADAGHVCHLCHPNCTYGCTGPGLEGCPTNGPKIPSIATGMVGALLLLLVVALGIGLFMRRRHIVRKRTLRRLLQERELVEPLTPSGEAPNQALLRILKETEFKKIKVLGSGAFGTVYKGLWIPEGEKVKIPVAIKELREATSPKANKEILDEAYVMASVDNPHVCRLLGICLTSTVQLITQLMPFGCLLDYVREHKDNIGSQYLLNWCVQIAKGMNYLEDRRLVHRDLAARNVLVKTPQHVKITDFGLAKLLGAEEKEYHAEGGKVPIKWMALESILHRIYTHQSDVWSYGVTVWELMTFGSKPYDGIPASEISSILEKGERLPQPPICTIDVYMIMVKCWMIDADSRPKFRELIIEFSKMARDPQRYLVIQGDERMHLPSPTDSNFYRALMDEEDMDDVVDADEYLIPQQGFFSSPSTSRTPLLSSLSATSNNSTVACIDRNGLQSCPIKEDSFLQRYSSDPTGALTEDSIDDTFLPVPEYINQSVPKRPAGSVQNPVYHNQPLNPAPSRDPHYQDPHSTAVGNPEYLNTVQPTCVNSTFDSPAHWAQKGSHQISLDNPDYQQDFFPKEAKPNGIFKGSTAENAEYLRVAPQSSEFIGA
Description: The following example describes general EGFR in-cell Western (ICW) screening protocol.
Two cell plates were prepared for each compound plate.
Serum Starvation: The cells were serum starved prior to compound addition. […] The cell plates were incubated at 37° C./5% CO2 for 2 hours.
Prepared compound plates were stored at RT prior to use and at 4° C. long term.
Compound Dilution Plate Preparation: 250 μl of DMEM supplemented with 1 mg/ml BSA (Sigma A3059-10G) was added to the appropriate wells of a 96 well plate to prepare the compound dilution plates. Using a multichannel pipettor, 1.25 μl of compound from the compound plate was transferred into the compound dilution plate.
Compound Addition: The starve media was removed from the cell plates by aspiration. Using a multichannel pipettor, the compound dilution plates were mixed by pipetting up and down three times. 50 μl of mixed, diluted compound was added to each of two rows/columns on each of two cell plates. The cell plates with compound were incubated at 37° C./5% CO2 for 4 hours.
50 μl of 20 or 0 ng/ml EGF was added to the appropriate wells without the removal of compound. The compound and EGF were mixed by pipetting up and down three times.
The plates were incubated at RT for 20 min without shaking. The Fixation Solution was removed by aspiration and the plates washed four times with 200 μl each of Triton Wash Solution (1×PBS, Sigma P3813-10PK, and 0.1% Triton X-100, T8787-50ML) for 5 min with gentle shaking.
The block was removed by aspiration and 50 μl of diluted primary Ab mix was added. The plates were incubated at 4° C. overnight with gentle shaking. The plates were washed five times with 200 μl of PBST (1×PBS, Sigma P3813-10PK, and 0.1% Tween-20, Sigma P9416-50ML) for 5 min each with shaking. 50 μl of diluted secondary Ab mix was added and the plates incubated at RT for 1 h with shaking. The plates were washed 5× with 200 μl of PBST for 5 min each with shaking. One final wash with 200 μl of PBS (Sigma P3813-10PK) for 5 min with shaking was performed prior to scanning.
In some screening assays, the dilution of the secondary Ab conjugates was 1/800 rather than 1/1200.
Plate Scanning: The plates were scanned on an Odyssey Infrared Imaging System from LI-COR Biosciences. The focus offset was set at 3.5 mm and the scanning intensity set at 3 for the 700 channel and 7 for the 800 channel.
Data Analysis: The % of Maximum and % Inhibition values were calculated as follows. 700 Channel=signal for total EGFR (used to control for variation in cell number). 800 Channel=signal for phosphorylated EGFR. 800−EGF=basal level EGFR phosporylation+non-specific signal (no compound). 800+EGF=800−EGF+EGF dependent EGFR receptor phosphorylation (no compound). 700/800com=700 or 800 channel signals with compound. % Maximum={[(800com/700com)−(800−EGF/700−EGF)]/[(800+EGF/700+EGF)−(800−EGF/700−EGF)]}×100%. % Inhibition=100%−(% Maximum).

MDBK line = assay: MTT Cell Proliferation Assay, MDBK line; format: cell-based, bovine; details: Bos taurus, MDBK
From the text: (§1) The following example describes the MTT Cell Proliferation Assay.
(§2) The MTT Cell Proliferation Assay is a colorimetric assay system that measures the reduction of the tetrazolium salt MTT (3-(4,5-dimethylthiazol-2-yl)-2,5-diphenyltetrazolium bromide) into insoluble formazan crystals, produced by the mitochondria of viable cells. […] The color can then be quantified by spectrophotometric means. Among the applications for the method are drug sensitivity, cytotoxicity, response to growth factors, and cell activation. The reduction of tetrazolium salts is now recognized as a safe, accurate alternative to radiometric testing.
(§3) Two replicates on each cell plate and 2 duplicate plates gave 4 individual replicates of each concentration, in each cell line. Concentrations were diluted in 100% DMSO from 25 mM stocks.
(§4) Twelve 96 well plates of each cell line were plated. Plating was done by dislodging cells as in passage protocol, counting on a hemocytometer, re-suspending in standard growth media, and plating using a multichannel pippetor.
(§5) 16 μl of 25 mM stock+34 μl DMSO=8 mM starting concentrations, and serial diluted as with test compounds in same plate. […] Two replicates of each concentrations was run on each cell plate. All compound addition and cell treatments were done using aseptic technique under a laminar flow aseptic hood.
(§6) Control: 0.5% DMSO in treatment media was used as the control.
(§7) MTT dye (Thiazolyl Blue Tetrazolium Bromide, Sigma cat # M5655) stock was prepared in bulk and stored at 4° C. for use: 5 mgs/ml sterile PDS, shielded from light. 4 ul of this stock per 100 uls treatment media per well was used.
(§8) Plates were incubated overnight prior to treatment, with treatment day=Day 0. Compound treatments were prepared prior to washing cells to minimize time cells were dry at room temperature after final aspiration. Compounds were diluted in 100% DMSO in 96 well polypropylene plates:40 μl 25 mM stock+10 μl DMSO=20 mM; 20 μl of 20 mM+30 μl DMSO=8 mM; 20 μl of 8 mM+30 μl DMSO=3.2 mM; 20 μl of 3.2 mM+30 μl DMSO=1.3 mM; 20 μl of 1.3 mM+30 μl DMSO=0.51 mM.
(§9) 5.0 μl/ml were added to treatment media, in sterile, 2.2 ml deep well plates=0.5% dmso final. Ten μl of each dmso concentration was added to 2.0 ml of treatment media and then mixed using a 1200 μl multichannel pipettor. Cell plates were treated from the deep well plates. Treatment media was standard growth media containing 0.5% FBS and standard additions. This reduced FBS concentration allowed for a slower growth rate in cells.
(§10) Media was aspirated from cell plates, and washed with 200 μl/well sterile PBS. Aspirated PBS wash, and cell plates were treated with 200 μl of compound/treatment media per well, and incubated at 37° C., 5% CO2 for 3 days.
(§11) Prior to harvesting, visual observations were made under an inverted microscope. Plates were harvested by: aspirating the growth media; adding back MTT dye/100 μl treatment media; and incubating plates at 37° C. for 1 hour. MTT dye was aspirated. 100 μl/well dmso was added, and then shaken on a Bellco plate shaker for 5 minutes, at 4.5 setting.
(§12) Plates were read in a Tecan Sunrize UV plate reader, at 560 nm. Settings: Read mode, Outside Normal 2 sec; Shake settle time 3 sec. Data is reported as % inhibition, calculated for individual plates using control values from that plate.

[1] = test system: epithelial carcinoma A431 cell line; assay: MTT Cell Proliferation Assay, A431 cell line; format: cell-based; details: for MTT (10 Point follow-up) ratio / MTT-72 h A431/MDBK (ratio): value in brackets; for MTT (10 Point follow-up) ratio: numerically MDBK over A431; for MTT-72 h A431/MDBK (ratio): numerically MDBK value over A431 value; for pIC50: Homo sapiens
From the text: as §1, §2, §3, §4, §5, §6, §7, §8, §9, §10, §11, §12

[2] = 10 point follow-up, second value of pair, read-out: MTT (10 Point follow-up) MDBK
[3] = 72 h, second value of A431/MDBK pair, read-out: MTT-72 h MDBK
[4] = A-431, 10 point follow-up, first value of pair, read-out: MTT (10 Point follow-up) A431
[5] = A-431, 72 h, 72 h, first value of A431/MDBK pair, read-out: MTT-72 h A431

Compound	ICW Screen (EGFR)	ICW Re-Test (EGFR)	pIC50 (MDBK line; [2])	pIC50 (MDBK line; [3])	MTT (10 Point follow-up) ratio [1]	MTT-72 h A431/MDBK (ratio) ([1]; 72 h)	pIC50 [1, 4]	pIC50 [1, 5]	MTT-72 h % Max ([1]; 72 h, maximal effect printed after the ratio)
CCC(=O)NC(c1cccs1)c1cc([N+](=O)[O-])c2cccnc2c1O (stereo not shown) [compound 10960]	32.5	91.3	6.01	5.99	1.49	1.52	6.19	6.17	–
CCOc1ccc(C(Nc2ccccn2)c2ccc3ccc(C)nc3c2O)cc1OC (stereo not shown) [compound 1976]	26.91	–	–	4.89	–	0.50	–	4.58	–
COc1ccc(C(Nc2ccccn2)c2ccc3cccnc3c2O)cc1 (stereo not shown) [compound 10524]	38.96	30.44	–	5.29	–	0.95	–	5.27	–
CCc1ccc(C(Nc2ccccn2)c2ccc3cccnc3c2O)cc1 (stereo not shown) [compound 10041]	45.08	3.45	5.63	5.53	1.47	1.00	5.80	5.53	–
Cc1ccnc(NC(c2ccccn2)c2ccc3cccnc3c2O)c1 (stereo not shown) [compound 10939]	32.68	33.81	–	5.17	–	1.20	–	5.25	–
Oc1c(C(Nc2ccccn2)c2cccc(Cl)c2Cl)ccc2cccnc12 (stereo not shown) [compound 10051]	36.47	–	6.01	5.85	1.79	1.80	6.26	6.10	–
Oc1c(C(Nc2ccccn2)c2ccc(Cl)c(Cl)c2)ccc2cccnc12 (stereo not shown) [compound 10109]	12.75	–	5.86	–	2.58	–	6.27	–	–
COc1ccc(Cl)cc1C(Nc1ccccn1)c1cc(Cl)c2cccnc2c1O (stereo not shown) [compound 10943]	44.28	68.79	5.73	5.68	1.50	1.60	5.90	5.88	–
CCCOc1ccc(C(Nc2ccccn2)c2ccc3cccnc3c2O)cc1 (stereo not shown) [compound 10028]	30.12	–	–	5.27	–	0.95	–	5.24	–
COc1ccccc1NC(c1cccnc1)c1ccc2cccnc2c1O (stereo not shown) [compound 11102]	44.31	39.06	–	5.12	–	1.04	–	5.13	–
COc1ccc(C(Nc2ccccn2)c2ccc3ccc(C)nc3c2O)cc1OC (stereo not shown) [compound 10006]	35.13	45.57	–	4.82	–	1.37	–	4.96	–
COc1ccc(C)cc1NC(c1ccc(F)cc1)c1ccc2cccnc2c1O (stereo not shown) [compound 11014]	47.81	32.53	–	5.36	–	0.92	–	5.33	–
COc1ccc(C(Nc2cc(C)ccn2)c2ccc3cccnc3c2O)c(OC)c1OC (stereo not shown) [compound 10031]	34.62	–	–	5.22	–	0.65	–	5.03	–
CCOc1ccc(C(Nc2cc(C)ccn2)c2ccc3cccnc3c2O)cc1OCC (stereo not shown) [compound 10143]	45.61	27.18	–	5.36	–	0.92	–	5.32	–
Cc1ccc(NC(c2ccccc2)c2ccc3cccnc3c2O)cc1 (stereo not shown) [compound 10664]	64.09	69.21	–	5.67	–	1.12	–	5.72	–
CCOc1cc(C(Nc2cc(C)ccn2)c2ccc3ccc(C)nc3c2O)ccc1O (stereo not shown) [compound 10071]	40.85	43.19	–	4.97	–	1.37	–	5.10	–
Cc1ccnc(NC(c2ccc3cccnc3c2O)c2sccc2C)c1 (stereo not shown) [compound 10963]	100.4	99.05	–	–	–	1.98	–	–	40%
